{
  "source": "paper PMC5218480",
  "about": "(PLoS ONE, 2017)",
  "test_system": "MV-4-11 cells",
  "assay": "Gene expression microarray analysis (Affymetrix PrimeView) and GSEA",
  "type": "cell-based, human",
  "set-up": "RFU PODN (11730768_x_at) / Fold change /veh PODN (11730768_x_at) / RFU LINC00158 (11744669_a_at) / Fold change /veh LINC00158 (11744669_a_at) / RFU DUSP10 (11751237_a_at) / Fold change /veh DUSP10 (11751237_a_at) / RFU ID3 (11757404_x_at) / Fold change /veh ID3 (11757404_x_at) / RFU PLEKHG5 (11737974_s_at) / Fold change /veh PLEKHG5 (11737974_s_at) / RFU LRRC4B (11730491_at) / Fold change /veh LRRC4B (11730491_at) / RFU GIMAP4 (11747438_a_at) / Fold change /veh GIMAP4 (11747438_a_at) / RFU KRT8 (11758183_x_at) / Fold change /veh KRT8 (11758183_x_at) / RFU CNN1 (11734310_a_at) / Fold change /veh CNN1 (11734310_a_at) / RFU VPS37D (11726825_at) / Fold change /veh VPS37D (11726825_at) / RFU C10orf10 (11716522_x_at) / Fold change /veh C10orf10 (11716522_x_at) / RFU KIR2DL2 /// KIR2DL4 /// KIR2DL5A /// KIR2DL5B /// KIR2DS1 /// KIR2DS2 /// KIR2DS3 /// KIR2DS4 /// KIR3DL3 /// KIR3DL3 /// KIR3DS1 (11738374_at) / Fold change /veh KIR2DL2 /// KIR2DL4 /// KIR2DL5A /// KIR2DL5B /// KIR2DS1 /// KIR2DS2 /// KIR2DS3 /// KIR2DS4 /// KIR3DL3 /// KIR3DL3 /// KIR3DS1 (11738374_at) / RFU C1QL1 (11718748_at) / Fold change /veh C1QL1 (11718748_at) / RFU TMPRSS4 (11747572_a_at) / Fold change /veh TMPRSS4 (11747572_a_at) / RFU HAMP (11756126_x_at) / Fold change /veh HAMP (11756126_x_at) / RFU RNFT2 (11725882_a_at) / Fold change /veh RNFT2 (11725882_a_at) / RFU NR4A2 (11747474_a_at) / Fold change /veh NR4A2 (11747474_a_at) / RFU ABCC12 (11746883_a_at) / Fold change /veh ABCC12 (11746883_a_at) / RFU TMEM136 (11760407_x_at) / Fold change /veh TMEM136 (11760407_x_at) / RFU CLDN22 /// WWC2 (11732394_at) / Fold change /veh CLDN22 /// WWC2 (11732394_at) / RFU HLA-DPB1 (11760878_x_at) / Fold change /veh HLA-DPB1 (11760878_x_at) / RFU SPINT1 (11716480_a_at) / Fold change /veh SPINT1 (11716480_a_at) / RFU GAP43 (11754022_s_at) / Fold change /veh GAP43 (11754022_s_at) / RFU A4GNT (11735810_at) / Fold change /veh A4GNT (11735810_at) / RFU PRB3 (11715151_x_at) / Fold change /veh PRB3 (11715151_x_at) / RFU TUBB4B (11761932_at) / Fold change /veh TUBB4B (11761932_at) / RFU CAPN14 (11732068_a_at) / Fold change /veh CAPN14 (11732068_a_at) / RFU TMCC2 (11721928_a_at) / Fold change /veh TMCC2 (11721928_a_at) / RFU IRGQ (11745062_a_at) / Fold change /veh IRGQ (11745062_a_at) / RFU FAM174B (11720279_a_at) / Fold change /veh FAM174B (11720279_a_at) / RFU TMPRSS4 (11748680_a_at) / Fold change /veh TMPRSS4 (11748680_a_at) / RFU FAM212B (11763350_a_at) / Fold change /veh FAM212B (11763350_a_at) / RFU PLEKHG5 (11743358_a_at) / Fold change /veh PLEKHG5 (11743358_a_at) / RFU ZSCAN30 (11745921_a_at) / Fold change /veh ZSCAN30 (11745921_a_at) / RFU CMKLR1 (11741424_a_at) / Fold change /veh CMKLR1 (11741424_a_at) / RFU LOC101060620 /// MAPK8IP1 (11723275_at) / Fold change /veh LOC101060620 /// MAPK8IP1 (11723275_at) / RFU SPTSSB (11747773_x_at) / Fold change /veh SPTSSB (11747773_x_at) / RFU PRSS12 (11739890_at) / Fold change /veh PRSS12 (11739890_at) / RFU BIN1 (11741810_x_at) / Fold change /veh BIN1 (11741810_x_at) / RFU WNT11 (11732464_a_at) / Fold change /veh WNT11 (11732464_a_at) / RFU C10orf10 (11716521_a_at) / Fold change /veh C10orf10 (11716521_a_at) / RFU C5orf56 (11738089_at) / Fold change /veh C5orf56 (11738089_at) / RFU CYB561 (11721691_x_at) / Fold change /veh CYB561 (11721691_x_at) / RFU ANKRD19P (11752326_a_at) / Fold change /veh ANKRD19P (11752326_a_at) / RFU OR2T12 /// OR2T33 /// OR2T8 (11738714_s_at) / Fold change /veh OR2T12 /// OR2T33 /// OR2T8 (11738714_s_at) / RFU VCAN (11748164_a_at) / Fold change /veh VCAN (11748164_a_at) / RFU JSRP1 (11732532_at) / Fold change /veh JSRP1 (11732532_at) / RFU KRTAP10-11 (11738290_x_at) / Fold change /veh KRTAP10-11 (11738290_x_at) / RFU MYO3A (11730013_a_at) / Fold change /veh MYO3A (11730013_a_at) / RFU EBF3 (11725865_a_at) / Fold change /veh EBF3 (11725865_a_at) / RFU CAMK2N1 (11719241_x_at) / Fold change /veh CAMK2N1 (11719241_x_at) / RFU C5orf56 (11738088_a_at) / Fold change /veh C5orf56 (11738088_a_at) / RFU OLFML3 (11715873_a_at) / Fold change /veh OLFML3 (11715873_a_at) / RFU LOC100653217 /// NTM (11731650_a_at) / Fold change /veh LOC100653217 /// NTM (11731650_a_at) / RFU MAPK11 (11762145_a_at) / Fold change /veh MAPK11 (11762145_a_at) / RFU FIZ1 (11724087_x_at) / Fold change /veh FIZ1 (11724087_x_at) / RFU OASL (11726364_x_at) / Fold change /veh OASL (11726364_x_at) / RFU SOX15 (11748057_x_at) / Fold change /veh SOX15 (11748057_x_at) / RFU CD79A (11719716_a_at) / Fold change /veh CD79A (11719716_a_at) / RFU HIST1H1D (11736915_at) / Fold change /veh HIST1H1D (11736915_at) / RFU CASKIN2 (11723855_a_at) / Fold change /veh CASKIN2 (11723855_a_at) / RFU LOC730098 (11760151_x_at) / Fold change /veh LOC730098 (11760151_x_at) / RFU OR4N2 (11742367_at) / Fold change /veh OR4N2 (11742367_at) / RFU PRRT2 (11749266_a_at) / Fold change /veh PRRT2 (11749266_a_at) / RFU SNX32 (11753110_a_at) / Fold change /veh SNX32 (11753110_a_at) / RFU CDHR5 (11726645_a_at) / Fold change /veh CDHR5 (11726645_a_at) / RFU RCAN1 (11760418_a_at) / Fold change /veh RCAN1 (11760418_a_at) / RFU FAM167A (11723789_a_at) / Fold change /veh FAM167A (11723789_a_at) / RFU FAM26E (11764081_at) / Fold change /veh FAM26E (11764081_at) / RFU ISYNA1 (11749810_s_at) / Fold change /veh ISYNA1 (11749810_s_at) / RFU ACY1 (11761880_at) / Fold change /veh ACY1 (11761880_at) / RFU 11764098_at / Fold change /veh 11764098_at / RFU SAMD14 (11745864_x_at) / Fold change /veh SAMD14 (11745864_x_at) / RFU NPB (11741838_a_at) / Fold change /veh NPB (11741838_a_at) / RFU TMPRSS6 (11731388_a_at) / Fold change /veh TMPRSS6 (11731388_a_at) / RFU KRTAP10-2 (11738614_at) / Fold change /veh KRTAP10-2 (11738614_at) / RFU ARHGAP8 /// PRR5-ARHGAP8 (11727945_x_at) / Fold change /veh ARHGAP8 /// PRR5-ARHGAP8 (11727945_x_at) / RFU KRTAP5-7 /// NADSYN1 (11734609_at) / Fold change /veh KRTAP5-7 /// NADSYN1 (11734609_at) / RFU RASL12 (11751679_a_at) / Fold change /veh RASL12 (11751679_a_at) / RFU CDKN2B (11736163_a_at) / Fold change /veh CDKN2B (11736163_a_at) / RFU PRF1 (11729649_at) / Fold change /veh PRF1 (11729649_at) / RFU, ZNF638 /// ZNF638-IT1 / Fold change vs veh, ZNF638 /// ZNF638-IT1 / RFU, PANK3 / Fold change vs veh, PANK3 / RFU, SH3YL1 / Fold change vs veh, SH3YL1 / RFU, ZEB2 / Fold change vs veh, ZEB2 / RFU, NRIP1 / Fold change vs veh, NRIP1 / RFU, PTTG1IP / Fold change vs veh, PTTG1IP / RFU, CAPN2 / Fold change vs veh, CAPN2 / RFU, MED14 / Fold change vs veh, MED14 / RFU, SNORA58 / Fold change vs veh, SNORA58 / RFU, C1orf63 / Fold change vs veh, C1orf63 / RFU, LRRFIP1 / Fold change vs veh, LRRFIP1 / RFU, NDUFAF7 / Fold change vs veh, NDUFAF7 / RFU, SLC12A2 / Fold change vs veh, SLC12A2 / RFU, IBTK / Fold change vs veh, IBTK / RFU, ESF1 / Fold change vs veh, ESF1 / Fold change vs veh, TMEM50B / RFU, TAOK1 / Fold change vs veh, TAOK1 / RFU, ACBD3 / Fold change vs veh, ACBD3 / RFU, TMA16 / Fold change vs veh, TMA16 / RFU, RWDD3 / Fold change vs veh, RWDD3 / RFU, BCAT1 / Fold change vs veh, BCAT1 / RFU, EDEM3 / Fold change vs veh, EDEM3 / RFU, TMEM33 / Fold change vs veh, TMEM33 / RFU, WDR75 / Fold change vs veh, WDR75 / RFU, AHCTF1 / Fold change vs veh, AHCTF1 / RFU, TFRC / Fold change vs veh, TFRC / RFU, ZDHHC17 / Fold change vs veh, ZDHHC17 / RFU, NOM1 / Fold change vs veh, NOM1 / RFU, ARL8B / Fold change vs veh, ARL8B / RFU, ZBTB11 / Fold change vs veh, ZBTB11 / RFU, TAMM41 / Fold change vs veh, TAMM41 / RFU, KIAA1704 /// LOC100996395 / Fold change vs veh, KIAA1704 /// LOC100996395 / RFU, ING1 / Fold change vs veh, ING1 / RFU, TRMT61B / Fold change vs veh, TRMT61B / RFU, FUBP3 / Fold change vs veh, FUBP3 / RFU, TP53 / Fold change vs veh, TP53 / RFU, TNKS2 / Fold change vs veh, TNKS2 / RFU, ZFP14 / Fold change vs veh, ZFP14 / RFU, ACTR2 / Fold change vs veh, ACTR2 / RFU, PPP3R1 / Fold change vs veh, PPP3R1 / RFU, PIK3R1 / Fold change vs veh, PIK3R1 / RFU, HNRNPA1 / Fold change vs veh, HNRNPA1 / RFU, RNF170 / Fold change vs veh, RNF170 / RFU, ZNF28 / Fold change vs veh, ZNF28 / RFU, RNGTT / Fold change vs veh, RNGTT / RFU, OGT / Fold change vs veh, OGT / RFU, BRD1 / Fold change vs veh, BRD1 / RFU, MARS / Fold change vs veh, MARS / RFU, ZNF655 / Fold change vs veh, ZNF655 / RFU, FAHD1 / Fold change vs veh, FAHD1 / RFU, BDP1 / Fold change vs veh, BDP1 / RFU, LRRCC1 / Fold change vs veh, LRRCC1 / RFU, ARID1A / Fold change vs veh, ARID1A / RFU, ZNF146 / Fold change vs veh, ZNF146 / RFU, ZNF330 / Fold change vs veh, ZNF330 / RFU, GPN3 / Fold change vs veh, GPN3 / RFU, C9orf123 / Fold change vs veh, C9orf123 / RFU, N4BP2L2 / Fold change vs veh, N4BP2L2 / RFU, ARFIP1 / Fold change vs veh, ARFIP1 / RFU, FAM179B / Fold change vs veh, FAM179B / RFU, BCL10 / Fold change vs veh, BCL10 / RFU, UHRF1BP1L / Fold change vs veh, UHRF1BP1L / RFU, BET1 / Fold change vs veh, BET1 / RFU, CNOT2 / Fold change vs veh, CNOT2 / RFU, ZNF268 / Fold change vs veh, ZNF268 / Fold change vs veh, ZNF507 / RFU, DGCR2 / Fold change vs veh, DGCR2 / RFU, WDSUB1 / Fold change vs veh, WDSUB1 / Fold change vs veh, HSP90B1 /// MIR3652 / RFU, ADSS / Fold change vs veh, ADSS / RFU, GK / Fold change vs veh, GK / RFU, ZNF148 / Fold change vs veh, ZNF148 / RFU, TAF9 / Fold change vs veh, TAF9 / RFU, SLC1A5 / Fold change vs veh, SLC1A5 / RFU, SLMO2 / Fold change vs veh, SLMO2 / RFU, ABCC4 / Fold change vs veh, ABCC4 / RFU, LOC101060439 /// RAP1B / Fold change vs veh, LOC101060439 /// RAP1B / RFU, RFX7 / Fold change vs veh, RFX7 / RFU, GTPBP10 / Fold change vs veh, GTPBP10 / RFU, CNEP1R1 / Fold change vs veh, CNEP1R1 / RFU, BIVM-ERCC5 /// ERCC5 / Fold change vs veh, BIVM-ERCC5 /// ERCC5 / RFU, ILF3 / Fold change vs veh, ILF3 / RFU 11762660_at / Fold change /veh 11762660_at / RFU VCAN (11757783_s_at) / Fold change /veh VCAN (11757783_s_at) / RFU DDX43 (11728927_at) / Fold change /veh DDX43 (11728927_at) / RFU KRT8 (11758188_x_at) / Fold change /veh KRT8 (11758188_x_at) / RFU NKD1 (11759106_at) / Fold change /veh NKD1 (11759106_at) / RFU SRD5A1 (11742802_a_at) / Fold change /veh SRD5A1 (11742802_a_at) / RFU TPSAB1 /// TPSB2 (11721975_s_at) / Fold change /veh TPSAB1 /// TPSB2 (11721975_s_at) / RFU GSTM3 (11746129_a_at) / Fold change /veh GSTM3 (11746129_a_at) / RFU IL23R (11737362_x_at) / Fold change /veh IL23R (11737362_x_at) / RFU TMEM51 (11727254_a_at) / Fold change /veh TMEM51 (11727254_a_at) / RFU PIWIL2 (11732686_x_at) / Fold change /veh PIWIL2 (11732686_x_at) / RFU ORM1 (11744905_x_at) / Fold change /veh ORM1 (11744905_x_at) / RFU CCDC152 (11743942_at) / Fold change /veh CCDC152 (11743942_at) / RFU ECM1 (11717891_a_at) / Fold change /veh ECM1 (11717891_a_at) / RFU IL23R (11748794_a_at) / Fold change /veh IL23R (11748794_a_at) / RFU TNFAIP8L3 (11732012_x_at) / Fold change /veh TNFAIP8L3 (11732012_x_at) / RFU MBOAT4 (11741988_at) / Fold change /veh MBOAT4 (11741988_at) / RFU 11764193_at / Fold change /veh 11764193_at / RFU TMEM53 (11763286_at) / Fold change /veh TMEM53 (11763286_at) / RFU MAGEB2 (11727129_at) / Fold change /veh MAGEB2 (11727129_at) / RFU TMEM200A (11744735_a_at) / Fold change /veh TMEM200A (11744735_a_at) / RFU CCDC152 (11751479_a_at) / Fold change /veh CCDC152 (11751479_a_at) / RFU FAM211A (11726209_a_at) / Fold change /veh FAM211A (11726209_a_at) / RFU RGS16 (11746705_a_at) / Fold change /veh RGS16 (11746705_a_at) / RFU VCAN (11755009_s_at) / Fold change /veh VCAN (11755009_s_at) / RFU RHOB (11743442_s_at) / Fold change /veh RHOB (11743442_s_at) / RFU RGS16 (11720943_a_at) / Fold change /veh RGS16 (11720943_a_at) / RFU RGS16 (11720944_at) / Fold change /veh RGS16 (11720944_at) / RFU, VPS4B / Fold change vs veh, VPS4B / RFU, CREB1 / Fold change vs veh, CREB1 / RFU, DNAJC13 / Fold change vs veh, DNAJC13 / RFU, GNAQ / Fold change vs veh, GNAQ / RFU, CDK5R1 / Fold change vs veh, CDK5R1 / RFU, ZRANB3 / Fold change vs veh, ZRANB3 / RFU, CUL4A / Fold change vs veh, CUL4A / RFU, CCNY / Fold change vs veh, CCNY / RFU, UFL1 / Fold change vs veh, UFL1 / RFU, COG3 / Fold change vs veh, COG3 / RFU, DIAPH2 / Fold change vs veh, DIAPH2 / RFU, SKA2 / Fold change vs veh, SKA2 / RFU, AFF3 / Fold change vs veh, AFF3 / RFU, LMF1 / Fold change vs veh, LMF1 / RFU, IPO11 / Fold change vs veh, IPO11 / RFU, DFFB / Fold change vs veh, DFFB / RFU, FOXP1 / Fold change vs veh, FOXP1 / RFU, CARD8 / Fold change vs veh, CARD8 / RFU, STRN3 / Fold change vs veh, STRN3 / RFU, ADK / Fold change vs veh, ADK / RFU, RASSF2 / Fold change vs veh, RASSF2 / RFU, WIPF1 / Fold change vs veh, WIPF1 / RFU, LARP1B / Fold change vs veh, LARP1B / RFU, RASA1 / Fold change vs veh, RASA1 / RFU, RB1 / Fold change vs veh, RB1 / RFU, PPFIA1 / Fold change vs veh, PPFIA1 / RFU, MAT2A / Fold change vs veh, MAT2A / RFU, CCT5 / Fold change vs veh, CCT5 / RFU, WDR92 / Fold change vs veh, WDR92 / RFU, CUX1 / Fold change vs veh, CUX1 / RFU, TTC7A / Fold change vs veh, TTC7A / RFU, TMEM135 / Fold change vs veh, TMEM135 / RFU, DEPTOR / Fold change vs veh, DEPTOR / RFU, CPM / Fold change vs veh, CPM / RFU, DNAJB6 / Fold change vs veh, DNAJB6 / RFU, CACNA2D3 / Fold change vs veh, CACNA2D3 / RFU, DTX4 / Fold change vs veh, DTX4 / RFU, TFCP2 / Fold change vs veh, TFCP2 / RFU, GMCL1 /// GMCL1P1 / Fold change vs veh, GMCL1 /// GMCL1P1 / RFU, AEBP2 / Fold change vs veh, AEBP2 / RFU, SNHG1 /// SNORD22 /// SNORD25 /// SNORD26 /// SNORD27 /// SNORD28 /// SNORD29 /// SNORD31 / Fold change vs veh, SNHG1 /// SNORD22 /// SNORD25 /// SNORD26 /// SNORD27 /// SNORD28 /// SNORD29 /// SNORD31 / Fold change (Aza/veh), C12orf56 (ProbeSet 11735607_a_at) / Fold change (ACY-1035/veh), C12orf56 (ProbeSet 11735607_a_at) / Fold change (Aza/veh), FGFR1OP (ProbeSet 11751329_s_at) / Fold change (ACY-1035/veh), FGFR1OP (ProbeSet 11751329_s_at) / Fold change (Aza/veh), VPS36 (ProbeSet 11739960_a_at) / Fold change (ACY-1035/veh), VPS36 (ProbeSet 11739960_a_at) / RFU SYPL1 (11715823_x_at) / Fold change /veh SYPL1 (11715823_x_at) / RFU IGFBP7 (11715501_s_at) / Fold change /veh IGFBP7 (11715501_s_at) / RFU REEP3 (11722064_at) / Fold change /veh REEP3 (11722064_at) / RFU IGLL1 (11728026_x_at) / Fold change /veh IGLL1 (11728026_x_at): dose or concentration left out as unconfirmed",
  "conditions": "ProbeSet 11729384_s_at; LIST D",
  "data": [
    {"smiles": "Nc1ncn([C@@H]2O[C@H](CO)[C@@H](O)[C@H]2O)c(=O)n1", "note": "[azacitidine]", "values": [
      {"measurement": "RFU, CCNY", "result": 167.26, "unit": "RFU"}
    ]}
  ]
}
